One assay has as its system TIE2. The following applies: Figure 1; reference not given; read-out: TIE2 in vitro IC50; cited from earlier work.
For assay [1], the target named is T1, STK10 (Homo sapiens, UniProt O94804).
T1 construct: purchased in-house DSF kinase panel (SGC-style construct names; the trailing letter is the construct ID)
The following applies: Figure 1; reference not given; read-out: STK10 in vitro IC50; cited from earlier work.

The test system of another assay is BRK. The settings on record: Figure 1; reference not given; read-out: BRK in vitro IC50; cited from earlier work.
In assay [2] the target is T1, STK10. As to the kind of experiment: DSF Tm panel. It counts as binding. The settings on record: 10 μM compound.
Assay [3] concerns the target T2, SLK (Homo sapiens, UniProt Q9H2G2). As to the kind of experiment: NanoBRET target engagement assay. It counts as cell-based. Set-up: has a greater impact on the full-length protein than on the kinase domains; host or cells: HEK293T (ATCC CRL-3216). The following applies: HEK293T cells.
Assay [4] concerns the target T1, STK10. As to the kind of experiment: PhosphoSens in vitro activity assay. The settings on record: ATP 160 μM. It counts as biochemical.
Assay [5] concerns the target T2, SLK. As to the kind of experiment: DSF Tm panel. The assay is classed as binding. Set-up: purchased in-house DSF kinase panel (SGC-style construct names; the trailing letter is the construct ID). The following applies: 10 μM compound.
Assay [6] deals with T2, SLK. As to the kind of experiment: PhosphoSens in vitro activity assay. The assay is classed as biochemical. The following applies: ATP 150 μM.

Like-named read-outs stand apart in the source and are kept apart here.

T1 sequence (O94804 18-317 limits assumed): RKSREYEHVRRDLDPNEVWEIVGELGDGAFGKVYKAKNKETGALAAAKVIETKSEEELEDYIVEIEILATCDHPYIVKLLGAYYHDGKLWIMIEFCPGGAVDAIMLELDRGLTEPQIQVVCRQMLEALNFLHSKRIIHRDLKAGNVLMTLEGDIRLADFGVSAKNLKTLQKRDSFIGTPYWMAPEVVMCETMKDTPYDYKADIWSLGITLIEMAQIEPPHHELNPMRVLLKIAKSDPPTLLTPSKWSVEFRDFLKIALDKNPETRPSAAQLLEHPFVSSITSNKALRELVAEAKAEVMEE

`COc1ccc2cc(-c3c(-c4ccncc4)nc(-c4ccc(S(C)(=O)=O)cc4C)n3C)ccc2c1` [SB-633825 (3), SB-633825]: the IC50 is 3.5 nM in the assay on TIE2, 66 nM at STK10 [1] and 150 nM with BRK.

Take `Cc1cc(F)ccc1CNC(=O)Nc1ccc2cc1OCCOCCNc1ccn3ncc-2c3n1` [compound 22]: the ΔTm at 10 µM stood at 8.3 °C on STK10 [2] and 3.7 °C at SLK [5]. Besides, at SLK [3], the EC50 is over 50000 nM. Further, the 50% inhibitory concentration (IC50) against STK10 [4] was determined as 3160 ± 670 nM; at SLK [6] it was 3130 ± 930 nM.

For `Cc1cc(C(F)(F)F)ccc1CNC(=O)Nc1ccc2cc1OCCOCCNc1ccn3ncc-2c3n1` [compound 25], the shift in melting temperature (ΔTm) at 10 µM on STK10 [2] is 9 °C; at SLK [5] it was 3.8 °C. Besides, the EC50 on SLK [3] is over 50000 nM. For the same molecule, the IC50 at STK10 [4] turned out to be 1070 ± 110 nM; on SLK [6], 2690 ± 510 nM.

For orientation: IC50 means the point on the concentration scale where inhibition reaches its midpoint. As a reminder, the ΔTm is the change in melting temperature against a reference sample. A word on the EC50: it is the concentration needed to bring the measured effect to its halfway point. Read a low EC50 as a more potent agent.

The record behind these values is article PMC12621043, “Un-LOK-ing a New Approach for Conformational Selective Targeting of STK10 (LOK)” (ACS Medicinal Chemistry Letters, 2025).
